In patent US20100167329A1, “DEVICE FOR DRUG SCREENING” (Respiratorius AB, priority 2006, published 2010):

System: small human bronchi
Experiment: Repeated LTD4 control contractions of tissue sample in the perfusion chamber (long time stability)
Details: LTD4 10 nM, 30 min, alternating with LTD4 free solution 60 min; repeated cycles n=8; after 14 h of measurements; FIG. 2
Experimental: One embodiment of the present invention is illustrated in FIG. 1, wherein the chamber 1 is made out of titanium and has a volume of typically 5 mL. The chamber is mounted on a mounting piece 2 of silver, which contains means for controlling the temperature of the chamber. An inlet 3 and outlet 4 allow a continuous flow of a physiological solution through the chamber ensuring a constant concentration of the substances in the chamber. Tissue sample is placed on hooks 8 and the hooks are placed in the chamber in a suitable position so that the tissue sample is completely immersed in the liquid flowing through the chamber. One of the hooks is attached to a force transducer 9 and the other is a fixed hook. Test substances are injected in the liquid prior to the liquid entering the chamber. As the tissue sample reacts to the substances present in the liquid the force transducer register the tension in the tissue sample due to contraction or relaxation. The force transducer is preferably AME801, which is commercially available from Infineon technologies.
A description of embodiments of the device according to the invention is shown in the previous section. In FIG. 2 control contractions in small human bronchi exposed to repeated (n=8) cycles with LTD4 (10 nM, 30 min) and LTD4 free solution (60 min) for 14 hours, are shown. The error bars show a low variance and good repeatability. […]

CCCCC/C=C\C\C=C/C=C/C=C/[C@@H](SC[C@H](N)C(=O)NCC(=O)O)[C@@H](O)CCCC(=O)O [LTD4]
original contraction of the bronchi remaining: ~80%
